Experimental data taken from patent US20120065179A1, “PRODRUG COMPRISING BETA-KETO CARBOXYLIC ACID, BETA-KETO CARBOXYLIC ACID SALT OR BETA-KETO CARBOXYLIC ACID ESTER FOR DRUG DELIVERY” (YKI, Ytemiska Institutet AB, priority 2009, published 2012).
Where “and” joins values, the source holds several entries; their conditions need not be identical. Equal entries are not always repeated.

Columns and labels:
[1] = Storage stability of beta-keto calcium salt prodrug of Nabumetone (17 days at 60° C., HPLC); assay type: physicochemical; conditions: for Relative amount of calcium salt beta-keto prodrug/Nabumetone remaining after 17 days at 60° C.: dry calcium salt, oven at 60° C.
[2] = Aqueous solubility of sodium beta-keto salt prodrug of Nabumetone (Example 13b); assay type: physicochemical; conditions: clear liquid after 3.5 h at 37° C. in 0.5 M NaOH; 200 μL diluted with 5.0 ml mobile phase
Description: 12.1 mg of the of ethyl-5-(6-methoxy-2-naphthyl)-beta-keto-pentanoate product prepared and purified as in Example 8 was mixed with 25 mL of a 0.5 M aqueous solution NaOH and homogenised on a vortex mixer. […] 15 minutes after preparation of the sample, the sample was transferred to an oil bath set at 37° C. with continuous gentle magnetic stirring, and kept there for 3.5 hours. Crystalline flakes remained in the sample at the end of the 3.5 hours heat-treatment, and the sample was thereafter centrifuged and the clear liquid above the sedimented crystals was analysed by HPLC as described above.
After storage around one hour at room temperature a fraction of the sample was then filtered twice through a 0.2 μm filter (Whatman, 0.2 μm PS) fitted to a syringe to give a clear solution. 200 μL of this filtered solution was transferred, in a tightly closed vessel, to an oil bath at 95° C. and kept at this temperature for about 5 hours to bring about quantitative decarboxylation of the labile, dissolved beta-keto carboxylic salt prodrug derivative of Nabumetone.
The heated sample was then mixed with 35 mL of mobile phase (see Example 1) whereby a few solid crystals (comprising Nabumetone) was seen to not dissolve. In order to assure a correct sampling for HPLC analysis, 5 mL of the 35 mL sample was filtered through a 0.2 μm filter, after the whole 35 mL sample had been pH adjusted to 4.21 by 300 μL 0.1 M HCl+100 μL 1 M HCl, to assure that the pH of the sample was close to the pH of the mobile phase itself (pH 4.30). The filtered solution was thereafter analysed by HPLC and found to contain 0.777 mg Nabumetone per liter. If recalculated to the corresponding concentration of nabumetone equivalents in the form of the beta-keto salt prodrug present in dissolved form in the filtered 200 μl sample that was subsequently heat-treated to form Nabumetone above, the obtained concentration corresponds to a Nabumetone concentration of 136.7 mg Nabumetone per liter in the clear aqueous solution, at room temperature, before the heat-treatment at 95° C.

[3] = In-vitro hydrolysis of Nabumetone beta-keto ester pro-prodrug and release of Nabumetone in model blood electrolyte solution at 37° C.; assay type: physicochemical; conditions: model blood solutes solution
[4] = Storage stability of benzoylacetate salts and their corresponding acid (HPLC or gravimetric); assay type: physicochemical; conditions: for weight % of initial amount: Solid benzoylacetic acid, room T and ambient indoor humidity
Description: A 0.2 M solution of ethyl benzoyl acetate (90%, Sigma Aldrich) in 0.5 M NaOH (aq) was prepared at room temperature and stirred for typically 5-24 hours, still at room temperature. After this time a major part of the ethyl benzoyl acetate had been transformed into dissolved sodium benzoyl acetate, as evidenced by monitoring the reaction by analysis of samples by reversed phase HPLC. Some acetophenone and remaining ethyl benzoyl acetate were typically present in the samples, but in minor amounts. The method employed a C8 column with an inner diameter of 150×4.6 mm and 5 micron particles. The mobile phase consisted of 400 ml deionized water+600 ml acetonitrile+0.196 g H3PO4 (85%)+2.760 g NaH2PO4*H2O. The flow rate was set to 1.0 mL/min and UV detection at 254 nm was employed for analysis of the compounds ethylbenzoylacetate (precursor), benzoylacetate (model prodrug) and acetophenone (model drug).
The storage stability of the sodium and calcium salts of benzoylacetate, and of benzoylacetic acid, in solid form, and in aqueous solutions, was investigated by storage of samples under various conditions (see Table 3a above) with regular HPLC- or gravimetric measurements of the samples from time to time. Samples denoted “neutralized” were prepared from a solution prepared as described in Example 1, which was neutralized with diluted HCl after performing the steps in Example 1.
From the data it can be concluded that the best storage stability at room temperature is obtained by storage in the form of the calcium salt.

[5] = Sustained release of acetophenone in vitro in pig blood at 37° C.; conditions: for Benzoyl acetate ion concentration: pig blood pH 6.63

5-(6-methoxy-2-naphthyl)-beta-keto-pentanoate [Beta keto salt prodrug]
half life ([1]; calcium salt form at 20° C., rule of thumb of doubling of reaction rate per 10° C.): ~270 days
Obtained value (area units) ([1]; dry calcium salt after 17 days at 60° C., redissolved in water, HPLC): 1591 area units
Relative amount of calcium salt beta-keto prodrug/Nabumetone remaining after 17 days at 60° C. [1]: 54.7%
Relative amount of calcium salt beta-keto prodrug/Nabumetone remaining after 17 days at 60° C. ([1]; listed as calcium beta-keto salt prodrug of Nabumetone): more than 50%
Expected value if no breakdown occured during storage and a 100% yield was obtained upon precipitation with calcium chloride ([1]; recalculated for dilution): 55938 area units

CCOC(=O)CC(=O)CCc1ccc2cc(OC)ccc2c1 [Pro-prodrug/beta-keto ester, ethyl-5-(6-methoxy-2-naphthyl)-beta-keto-pentanoate]
Area at retention time […] characteristic for detection of the beta-keto ester pro-prodrug [2]: 632 arbitrary units
Pro-prodrug/beta-keto ester (HPLC peak area) ([3]; Time 0.00 hours): 1440 arbitrary units
Pro-prodrug/beta-keto ester (HPLC peak area) ([3]; Time 0.67 hours): 1368 arbitrary units
Pro-prodrug/beta-keto ester (HPLC peak area) ([3]; Time 1.67 hours): 1395 arbitrary units
Pro-prodrug/beta-keto ester (HPLC peak area) ([3]; Time 2.67 hours): 1145 arbitrary units
Pro-prodrug/beta-keto ester (HPLC peak area) ([3]; Time 4.58 hours): 1130 arbitrary units
Pro-prodrug/beta-keto ester (HPLC peak area) ([3]; Time 22.6 hours): 780 arbitrary units
Pro-prodrug/beta-keto ester (HPLC peak area) ([3]; Time 28.8 hours): 672 arbitrary units
Pro-prodrug/beta-keto ester (HPLC peak area) ([3]; Time 48.8 hours): 618 arbitrary units
Pro-prodrug/beta-keto ester (HPLC peak area) ([3]; Time 53.6 hours): 0 arbitrary units
Pro-prodrug/beta-keto ester (HPLC peak area) ([3]; Time 70.3 hours): 227 arbitrary units and 245 arbitrary units
Pro-prodrug/beta-keto ester (HPLC peak area) ([3]; Time 121.25 hours): 0 arbitrary units
Pro-prodrug/beta-keto ester (HPLC peak area) ([3]; Time 145.0 hours): 0 arbitrary units
Pro-prodrug/beta-keto ester (HPLC peak area) ([3]; Time 172.6 hours): 0 arbitrary units
Pro-prodrug/beta-keto ester (HPLC peak area) ([3]; Time 197.3 hours): 0 arbitrary units
Pro-prodrug/beta-keto ester (HPLC peak area) ([3]; Time 218.4 hours): 0 arbitrary units
Pro-prodrug/beta-keto ester (HPLC peak area) ([3]; Time 293.7 hours): 0 arbitrary units
Pro-prodrug/beta-keto ester (HPLC peak area) ([3]; Time 335 hours): 0 arbitrary units

COc1ccc2cc(CCC(=O)CC(=O)O)ccc2c1 [Prodrug/beta-keto anion, 5-(6-methoxy-2-naphthyl)-beta-keto-pentanoate]
Prodrug/beta-keto anion (HPLC area) ([3]; Time 0.00 hours): 2055 arbitrary units
Prodrug/beta-keto anion (HPLC area) ([3]; Time 0.67 hours): 2313 arbitrary units
Prodrug/beta-keto anion (HPLC area) ([3]; Time 1.67 hours): 2383 arbitrary units
Prodrug/beta-keto anion (HPLC area) ([3]; Time 2.67 hours): 2266 arbitrary units
Prodrug/beta-keto anion (HPLC area) ([3]; Time 4.58 hours): 2204 arbitrary units
Prodrug/beta-keto anion (HPLC area) ([3]; Time 22.6 hours): 2079 arbitrary units
Prodrug/beta-keto anion (HPLC area) ([3]; Time 28.8 hours): 2284 arbitrary units
Prodrug/beta-keto anion (HPLC area) ([3]; Time 48.8 hours): 2312 arbitrary units
Prodrug/beta-keto anion (HPLC area) ([3]; Time 53.6 hours): 2350 arbitrary units
Prodrug/beta-keto anion (HPLC area) ([3]; Time 70.3 hours): 2087 arbitrary units and 2313 arbitrary units
Prodrug/beta-keto anion (HPLC area) ([3]; Time 96.8 hours): 1915 arbitrary units and 1922 arbitrary units
Prodrug/beta-keto anion (HPLC area) ([3]; Time 121.25 hours): 1620 arbitrary units
Prodrug/beta-keto anion (HPLC area) ([3]; Time 145.0 hours): 1444 arbitrary units
Prodrug/beta-keto anion (HPLC area) ([3]; Time 172.6 hours): 1220 arbitrary units
Prodrug/beta-keto anion (HPLC area) ([3]; Time 197.3 hours): 1043 arbitrary units
Prodrug/beta-keto anion (HPLC area) ([3]; Time 218.4 hours): 943 arbitrary units
Prodrug/beta-keto anion (HPLC area) ([3]; Time 293.7 hours): 400 arbitrary units
Prodrug/beta-keto anion (HPLC area) ([3]; Time 335 hours): 398.5 arbitrary units

O=C(O)CC(=O)c1ccccc1 [benzoylacetic acid]
weight % of initial amount ([4]; storage time 0 days): 100 weight %
weight % of initial amount ([4]; storage time 9 days): 94.7 weight %
weight % of initial amount ([4]; storage time 23 days): 87.4 weight %
weight % of initial amount ([4]; storage time 27 days): 85.4 weight %
weight % of initial amount ([4]; storage time 29 days): 84.4 weight %
weight % of initial amount ([4]; storage time 35 days): 81.9 weight %
weight % of initial amount ([4]; storage time 42 days): 79.4 weight %
weight % of initial amount ([4]; storage time 52 days): 73.6 weight %
half-life ([4]; solid dry acid, typical indoor conditions): ~100 days

benzoyl acetate [Benzoyl acetate ion]
half life ([5]; pig blood pH 6.63, 37° C.): about 3 hours
period of sustained release of the acetophenone (model drug) ([5]; pig blood pH 6.63, 37° C.): at least 6 hours
Benzoyl acetate ion concentration ([5]; Time at 37° C. 0.25): 1.83 mM
Benzoyl acetate ion concentration ([5]; Time at 37° C. 1.33): 1.54 mM
Benzoyl acetate ion concentration ([5]; Time at 37° C. 2.58 (sampling time possibly exchanged with 4.75)): 1.17 mM
Benzoyl acetate ion concentration ([5]; Time at 37° C. 4.75 (sampling time possibly exchanged with 2.58)): 0.929 mM
Benzoyl acetate ion concentration ([5]; Time at 37° C. 5.58): 0.724 mM
Benzoyl acetate ion concentration ([5]; Time at 37° C. 6.58): 0.641 mM
Benzoyl acetate ion concentration ([5]; Time at 37° C. 22.58): 0.0356 mM
Benzoyl acetate ion concentration ([5]; Time at 37° C. −0.17 (analysed just before heating to 37° C.)): 2.30 mM
